This assay has as its target T1, Endothelial lipase (EL) (Homo sapiens, UniProt Q9Y5X9).
T1 construct: HT-1080 cells, which were transformed by RAGE technology (Athersys) to overexpress endogenous EL; endogenous in cells; conditioned medium used as the enzyme source
T1 sequence (Q9Y5X9 21-500): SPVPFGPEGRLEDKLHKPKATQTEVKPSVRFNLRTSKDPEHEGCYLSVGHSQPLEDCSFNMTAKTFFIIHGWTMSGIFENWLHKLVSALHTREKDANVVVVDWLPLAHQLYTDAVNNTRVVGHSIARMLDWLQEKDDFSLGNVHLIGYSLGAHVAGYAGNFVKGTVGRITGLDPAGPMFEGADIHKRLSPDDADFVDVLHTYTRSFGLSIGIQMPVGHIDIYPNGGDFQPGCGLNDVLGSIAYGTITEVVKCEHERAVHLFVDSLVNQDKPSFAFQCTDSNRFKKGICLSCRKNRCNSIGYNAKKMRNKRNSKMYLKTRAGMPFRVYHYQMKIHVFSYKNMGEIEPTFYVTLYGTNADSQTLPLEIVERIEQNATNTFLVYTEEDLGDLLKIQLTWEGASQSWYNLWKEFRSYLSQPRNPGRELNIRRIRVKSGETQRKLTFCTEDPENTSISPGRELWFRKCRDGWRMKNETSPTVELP
As to the kind of experiment: Endothelial lipase (EL) enzymatic assay with fluorescent substrate A10070 in DMPG vesicles. In kind it is biochemical. As to conditions: range observed in the EL assay; read-out: EL IC50 values. As for the experimental part: Endothelial lipase activity was measured using a fluorescent substrate, A10070, (Invitrogen, CA) doped into an artificial vesicle containing DMPG (Avanti Polar Lipids) as the excipient. Vesicles were prepared by combining 285 μL of 1 mM DMPG in a 1:1 mixture of MeOH and CHCl3 with 15 μL of 1 mM A10070 in a 1:1 mixture of MeOH and CHCl3. The mixture was dried under nitrogen and resuspended in 150 μL of 50 mM HEPES pH 8.0 buffer containing 100 mM NaCl and 0.2 mM EDTA. The sample was allowed to sit at rt for 15 min and then was sonicated 3×4 mins on ice with a Branson Sonicator using duty cycle 1. This preparation provides vesicles with a mole fraction of 0.05 for the FRET substrate.
The enzymatic assay was measured using white, opaque 96-well half area plates. Each well contained 60 μL of assay buffer (50 mM HEPES pH 8.0, 50 mM NaCl and 1 mM CaCl2) and 2 ul of a DMSO solution containing compound of interest. Conditioned media obtained from HT-1080 cells, which were transformed by RAGE technology (Athersys) to overexpress endogenous EL, was added and the reaction was allowed to incubate for 20 min at 37° C. with gentle agitation. The reaction was started by the addition of 20 μL of a 1:4 dilution of vesicles. The final total reaction volume was 100 μL. The reaction rates were measured on a Gemini plate reader with an excitation wavelength of 488 nm and an emission of 530 nm. Readings were taken every 20 seconds for 10 min with agitation between each reading. The slope of the linear portion of the readout was used to calculate the rate of the reaction.

For `Nc1c(C(=O)N[C@@H]2CCCc3c(NC(=O)c4ccccc4)cccc32)[nH]c(=O)[nH]c1=O` [Example 124, (R)-5-amino-N-(5-benzamido-1,2,3,4-tetrahydronaphthalen-1-yl)-2,6-dioxo-1,2,3,6-tetrahydropyrimidine-4-carboxamide], the half-maximal inhibitory concentration (IC50) – broadly, the concentration that gives 50% inhibition – was at most 10 µM. Take `O=C(N[C@@H]1CCCc2ccccc21)c1[nH]c(=O)[nH]c(=O)c1O` [Example 276, (R)-5-hydroxy-2,6-dioxo-N-(1,2,3,4-tetrahydronaphthalen-1-yl)-1,2,3,6-tetrahydropyrimidine-4-carboxamide]: the half-inhibitory concentration (IC50) was at most 10 µM. Under `O=C(Cc1ccccc1)N[C@H]1CC[C@@H](NC(=O)c2[nH]c(=O)[nH]c(=O)c2O)CC1` [Example 279, 5-hydroxy-2,6-dioxo-N-(cis-4-(2-phenylacetamido)cyclohexyl)-1,2,3,6-tetrahydropyrimidine-4-carboxamide] stands at most 10 µM; under `O=C(N[C@H]1CCCc2c1cccc2C(F)(F)F)c1[nH]c(=O)[nH]c(=O)c1O` [Example 266, (S)-5-hydroxy-2,6-dioxo-N-(5-(trifluoromethyl)-1,2,3,4-tetrahydronaphthalen-1-yl)-1,2,3,6-tetrahydropyrimidine-4-carboxamide], at most 10 µM.

Take `Nc1c(C(=O)N[C@@H]2CCCc3c(OCc4ccccc4)cccc32)[nH]c(=O)[nH]c1=O` [Example 82, (R)-5-amino-N-(5-(benzyloxy)-1,2,3,4-tetrahydronaphthalen-1-yl)-2,6-dioxo-1,2,3,6-tetrahydropyrimidine-4-carboxamide]: the IC50 is at most 10 µM. For `O=C(N[C@@H]1CCc2ccc(C(F)(F)F)cc21)c1[nH]c(=O)[nH]c(=O)c1O` [Example 248, (R)-5-hydroxy-2,6-dioxo-N-(6-(trifluoromethyl)-2,3-dihydro-1H-inden-1-yl)-1,2,3,6-tetrahydropyrimidine-4-carboxamide], the IC50 was at most 10 µM. `O=C(N[C@H]1CCCc2ccccc21)c1[nH]c(=O)[nH]c(=O)c1O` [Example 245, (S)-5-hydroxy-2,6-dioxo-N-(1,2,3,4-tetrahydronaphthalen-1-yl)-1,2,3,6-tetrahydropyrimidine-4-carboxamide]: the IC50 is at most 10 µM. With `Nc1c(C(=O)N[C@H]2CC[C@@H](NC(=O)Cc3ccccc3)CC2)[nH]c(=O)[nH]c1=O` [Example 116, 5-amino-2,6-dioxo-N-(cis-4-(2-phenylacetamido)cyclohexyl)-1,2,3,6-tetrahydropyrimidine-4-carboxamide] the figure was at most 10 µM; with `Nc1c(C(=O)N[C@H]2CCCc3c2cccc3C(F)(F)F)[nH]c(=O)[nH]c1=O` [Example 50, (S)-5-amino-2,6-dioxo-N-(5-(trifluoromethyl)-1,2,3,4-tetrahydronaphthalen-1-yl)-1,2,3,6-tetrahydropyrimidine-4-carboxamide], at most 10 µM. With `Nc1c(C(=O)N[C@H]2CC[C@@H](c3ccccc3)CC2)n(-c2ccc(Cl)c(Cl)c2)c(=O)[nH]c1=O` [Example 204, 5-amino-3-(3,4-dichlorophenyl)-2,6 dioxo-N-(cis-4-phenylcyclohexyl)-1,2,3,6-tetrahydropyrimidine-4-carboxamide] the figure was at most 10 µM; with `CCOC(=O)Cn1cc(-c2ccc([C@@H]3CC[C@H](NC(=O)c4[nH]c(=O)[nH]c(=O)c4N)C3)cc2)cn1` [Example 160, ethyl 2-(4-(4-((1R,3S)-3-(5-amino 2,6-dioxo-1,2,3,6-tetrahydropyrimidine-4-carboxamido)cyclopentyl)phenyl) 1H-pyrazol-1-yl)acetate], at most 10 µM; with `O=C(N[C@H]1CC[C@@H](c2ccccc2)CC1)c1[nH]c(=O)n(CCC(F)(F)F)c(=O)c1O` [Example 252, 5-hydroxy-2,6-dioxo-N-((1s,4s)-4-phenylcyclohexyl)-1-(3,3,3-trifluoropropyl)-1,2,3,6-tetrahydropyrimidine-4-carboxamide], at most 10 µM. With `Nc1c(C(=O)N[C@H]2CC[C@@H](c3ccc(-c4ccc(Cl)cc4)cc3)C2)[nH]c(=O)[nH]c1=O` [Example 170, 5-amino-N-((1S,3R)-3-(4′-chlorobiphenyl-4-yl)cyclopentyl)-2,6-dioxo-1,2,3,6-tetrahydropyrimidine-4 carboxamide] the figure was at most 10 µM. Take `COc1ccccc1C1CCC(NC(=O)c2[nH]c(=O)[nH]c(=O)c2O)C1` (centres unmarked) [Example 292, 5-hydroxy-N-(3-(2-methoxyphenyl)cyclopentyl)-2,6-dioxo-1,2,3,6-tetrahydropyrimidine-4 carboxamide]: the IC50 was at most 10 µM. Turning to `Nc1c(C(=O)NC2CCN(c3ccccc3)C2)[nH]c(=O)[nH]c1=O` (centres unmarked) [Example 182, 5-amino-2,6-dioxo-N-(1-phenylpyrrolidin-3-yl)-1,2,3,6-tetrahydropyrimidine-4-carboxamide], the concentration for half-maximal inhibition (IC50) was at most 10 µM.

On to `Nc1c(C(=O)N[C@@H]2CCc3cc(C(F)(F)F)ccc32)[nH]c(=O)[nH]c1=O` [Example 27, (R)-5-amino-2,6-dioxo-N-(5-(trifluoromethyl)-2,3-dihydro-1H-inden-1-yl)-1,2,3,6-tetrahydropyrimidine-4-carboxamide], for which the IC50 was at most 10 µM. Take `Nc1c(C(=O)N[C@H]2CCCc3cc(C(F)(F)F)ccc32)[nH]c(=O)[nH]c1=O` [Example 52, (S)-5-amino-2,6-dioxo-N-(6-(trifluoromethyl)-1,2,3,4-tetrahydronaphthalen-1-yl)-1,2,3,6-tetrahydropyrimidine-4-carboxamide]: the half-inhibitory concentration (IC50) is at most 10 µM. In the case of `Nc1c(C(=O)N[C@H]2CCCc3cc(OCC(F)(F)F)ccc32)[nH]c(=O)[nH]c1=O` [Example 34, (S)-5-amino-2,6-dioxo-N-(6-(2,2,2-trifluoroethoxy)-1,2,3,4-tetrahydronaphthalen-1-yl)-1,2,3,6-tetrahydropyrimidine-4-carboxamide], the concentration for half-maximal inhibition (IC50) is at most 10 µM.

Take `Nc1c(C(=O)N[C@@H]2CC[C@H](c3ccc(Cl)c(Cl)c3)C2)[nH]c(=O)[nH]c1=O` [Example 74, 5-amino-N-((1R,3S)-3-(3,4-dichlorophenyl)cyclopentyl)-2,6-dioxo-1,2,3,6-tetrahydropyrimidine-4-carboxamide]: the IC50 is at most 10 µM.

As to `O=C(N[C@@H]1CCc2cc(O)ccc21)c1[nH]c(=O)[nH]c(=O)c1O` [Example 262, (R)-5-hydroxy-N-(5-hydroxy-2,3-dihydro-1H-inden-1-yl)-2,6-dioxo-1,2,3,6-tetrahydropyrimidine-4-carboxamide], the IC50 was at most 10 µM. In the case of `Nc1c(C(=O)N[C@@H]2C[C@@H](c3ccccc3)c3ccccc32)[nH]c(=O)[nH]c1=O` [Example 42, 5-amino-2,6-dioxo-N-((1R,3S)-3-phenyl-2,3-dihydro-1H-inden-1-yl)-1,2,3,6-tetrahydropyrimidine-4-carboxamide], the half-inhibitory concentration (IC50) is at most 10 µM. On to `Nc1c(C(=O)N[C@H]2CCCc3c(OCc4ccccc4F)cccc32)[nH]c(=O)[nH]c1=O` [Example 97, (S)-5-amino-N-(5-(2-fluorobenzyloxy)-1,2,3,4-tetrahydronaphthalen-1-yl)-2,6-dioxo-1,2,3,6-tetrahydropyrimidine-4-carboxamide], for which the half-maximal inhibitory concentration (IC50) is at most 10 µM. With `COC(=O)C1CCCC(NC(=O)c2[nH]c(=O)[nH]c(=O)c2N)C1` (centres unmarked) [Example 58, methyl 3-(5-amino-2,6-dioxo-1,2,3,6-tetrahydropyrimidine-4-carboxamido) cyclohexanecarboxylate], the IC50 is at most 10 µM. `COCCNc1c(C(=O)N[C@H]2CC[C@@H](c3ccccc3)CC2)[nH]c(=O)[nH]c1=O` [Example 214, 5-(2-methoxyethylamino)-2,6-dioxo-N-(cis-4-phenylcyclohexyl)-1,2,3,6-tetrahydropyrimidine-4-carboxamide]: the IC50 is at most 10 µM. With `Nc1c(C(=O)N[C@@H]2CC[C@H](C(=O)Nc3ccccc3)C2)[nH]c(=O)[nH]c1=O` [Example 130, 5-amino-2,6-dioxo-N-((1R,3S)-3-(phenylcarbamoyl)cyclopentyl)-1,2,3,6-tetrahydropyrimidine-4-carboxamide] the figure was at most 10 µM. Under `Nc1c(C(=O)N[C@@H]2CCCc3c(-c4ccccc4)cccc32)[nH]c(=O)[nH]c1=O` [Example 112, (R)-5-amino-2,6-dioxo-N-(5-phenyl-1,2,3,4-tetrahydronaphthalen-1-yl)-1,2,3,6-tetrahydropyrimidine-4-carboxamide] stands at most 10 µM.

For the origin of these results see US9199946B2, “Pyrimidinone carboxamide inhibitors of endothelial lipase” (BRISTOL-MYERS SQUIBB COMPANY, priority 2012, dated 2015).
